pEC50: −log10 of the molar value. Calls of active or inactive are those of the source. The rule behind the calls is not given here.

T1 sequence (P12504 whole entry, looked up): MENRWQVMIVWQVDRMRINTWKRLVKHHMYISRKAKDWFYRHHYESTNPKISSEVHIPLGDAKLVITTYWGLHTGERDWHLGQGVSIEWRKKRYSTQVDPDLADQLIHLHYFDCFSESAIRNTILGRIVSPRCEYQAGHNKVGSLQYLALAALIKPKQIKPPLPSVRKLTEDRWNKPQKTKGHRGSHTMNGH
T1 sequence (Q96SW2 whole entry, looked up): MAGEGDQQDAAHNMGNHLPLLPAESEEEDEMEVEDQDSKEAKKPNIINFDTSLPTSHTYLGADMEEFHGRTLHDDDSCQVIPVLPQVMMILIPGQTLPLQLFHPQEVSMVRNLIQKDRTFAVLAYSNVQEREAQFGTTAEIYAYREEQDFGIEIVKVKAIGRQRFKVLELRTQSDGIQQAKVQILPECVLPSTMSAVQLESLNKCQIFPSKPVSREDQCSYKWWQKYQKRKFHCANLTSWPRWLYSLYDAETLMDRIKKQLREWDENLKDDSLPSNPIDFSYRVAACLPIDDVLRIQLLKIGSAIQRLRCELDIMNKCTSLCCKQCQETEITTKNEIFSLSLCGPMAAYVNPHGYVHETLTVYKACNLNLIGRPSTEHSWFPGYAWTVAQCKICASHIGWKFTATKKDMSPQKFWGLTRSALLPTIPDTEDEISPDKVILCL

For the first data set, the system named is Human immunodeficiency virus 1. Put plainly: Antiviral activity against HIV-1 IIIB infected in TZM-bl cells. The data set is classed as functional, organism-based. The note with it: Human immunodeficiency virus 1, IIIB.
In turn, `COc1ccc(OCC(=O)NCCCCCCCCNCC(=O)Nc2cccc3c2C(=O)N(C2CCC(=O)NC2=O)C3=O)cc1NC(=O)c1c(N)cccc1Sc1ccc([N+](=O)[O-])cc1` (centres undefined) had a pEC50 of less than 4.00.
Molecule `COc1ccc(O)cc1NC(=O)c1c(N)cccc1S(=O)(=O)c1ccc([N+](=O)[O-])cc1` gave a pEC50 of 5.67.
The molecule `COc1ccc(OCC(=O)NCCNc2cccc3c2C(=O)N(C2CCC(=O)NC2=O)C3=O)cc1NC(=O)c1c(N)cccc1Sc1ccc([N+](=O)[O-])cc1` (centres undefined) had a pEC50 of less than 4.00.
In the case of `COc1ccc(OCC(=O)NCCNc2cccc3c2C(=O)N(C2CCC(=O)NC2=O)C3=O)cc1NC(=O)c1c(N)cccc1S(=O)(=O)c1ccc([N+](=O)[O-])cc1` (centres undefined), the pEC50 is less than 4.00.
Turning to `COc1ccc(OCC(=O)NCCOCCOCCNCC(=O)Nc2cccc3c2C(=O)N(C2CCC(=O)NC2=O)C3=O)cc1NC(=O)c1c(N)cccc1S(=O)(=O)c1ccc([N+](=O)[O-])cc1` (centres undefined), the pEC50 was 4.17.
In turn, `COc1ccc(OCC(=O)NCCCCCCCCNCC(=O)Nc2cccc3c2C(=O)N(C2CCC(=O)NC2=O)C3=O)cc1NC(=O)c1c(N)cccc1S(=O)(=O)c1ccc([N+](=O)[O-])cc1` (centres undefined) showed a pEC50 of less than 4.00.
Regarding `COc1ccc(OCC(=O)NCCCCCCNCC(=O)Nc2cccc3c2C(=O)N(C2CCC(=O)NC2=O)C3=O)cc1NC(=O)c1c(N)cccc1S(=O)(=O)c1ccc([N+](=O)[O-])cc1` (centres undefined), the pEC50 is less than 4.00.
For `COc1ccc(OCC(=O)NCCCCCCNCC(=O)Nc2cccc3c2C(=O)N(C2CCC(=O)NC2=O)C3=O)cc1NC(=O)c1c(N)cccc1Sc1ccc([N+](=O)[O-])cc1` (centres undefined), the pEC50 was less than 4.00.
Take `COc1ccc(OCC(=O)NCCOCCOCCOCCNCC(=O)Nc2cccc3c2C(=O)N(C2CCC(=O)NC2=O)C3=O)cc1NC(=O)c1c(N)cccc1S(=O)(=O)c1ccc([N+](=O)[O-])cc1` (centres undefined): the pEC50 is 4.67.
The molecule `COc1ccc(OCC(=O)NCCOCCOCCOCCNc2cccc3c2C(=O)N(C2CCC(=O)NC2=O)C3=O)cc1NC(=O)c1c(N)cccc1S(=O)(=O)c1ccc([N+](=O)[O-])cc1` (centres undefined) gave a pEC50 of less than 4.00.
The molecule `COc1ccc(OCC(=O)NCCCCCCCCCCNc2cccc3c2C(=O)N(C2CCC(=O)NC2=O)C3=O)cc1NC(=O)c1c(N)cccc1S(=O)(=O)c1ccc([N+](=O)[O-])cc1` (centres undefined) showed a pEC50 of less than 4.00.
The molecule `COc1ccc(OCC(=O)NCCCCCCCCNc2cccc3c2C(=O)N(C2CCC(=O)NC2=O)C3=O)cc1NC(=O)c1c(N)cccc1S(=O)(=O)c1ccc([N+](=O)[O-])cc1` (centres undefined) showed a pEC50 of less than 4.00.
For `COc1ccc(OCC(=O)NCCOCCOCCOCCNc2cccc3c2C(=O)N(C2CCC(=O)NC2=O)C3=O)cc1NC(=O)c1c(N)cccc1Sc1ccc([N+](=O)[O-])cc1` (centres undefined), the pEC50 was less than 4.00.
As for `COc1ccc(OCC(=O)NCCOCCNc2cccc3c2C(=O)N(C2CCC(=O)NC2=O)C3=O)cc1NC(=O)c1c(N)cccc1S(=O)(=O)c1ccc([N+](=O)[O-])cc1` (centres undefined), the pEC50 is less than 4.00.
On to `COc1ccc(OCC(=O)NCCCCNCC(=O)Nc2cccc3c2C(=O)N(C2CCC(=O)NC2=O)C3=O)cc1NC(=O)c1c(N)cccc1Sc1ccc([N+](=O)[O-])cc1` (centres undefined), for which the pEC50 is less than 4.00.
On the same count and under the same terms, to `COc1ccc(OCC(=O)NCCOCCNCC(=O)Nc2cccc3c2C(=O)N(C2CCC(=O)NC2=O)C3=O)cc1NC(=O)c1c(N)cccc1Sc1ccc([N+](=O)[O-])cc1` (centres undefined) belongs less than 4.00.

Test system in a further data set: not listed separately
Put plainly: Cytotoxicity against human TZM-bl cells. It counts as toxicity, cell-based.
Conditions: not given
Turning to `COc1ccc(OCC(=O)NCCCCCCCCNCC(=O)Nc2cccc3c2C(=O)N(C2CCC(=O)NC2=O)C3=O)cc1NC(=O)c1c(N)cccc1Sc1ccc([N+](=O)[O-])cc1` (centres undefined), the CC50 was more than 200 µM.
Molecule `COc1ccc(O)cc1NC(=O)c1c(N)cccc1S(=O)(=O)c1ccc([N+](=O)[O-])cc1` displayed a CC50 of more than 200 µM.
The same measure, in the same setting: to `COc1ccc(OCC(=O)NCCNc2cccc3c2C(=O)N(C2CCC(=O)NC2=O)C3=O)cc1NC(=O)c1c(N)cccc1Sc1ccc([N+](=O)[O-])cc1` (centres undefined) belongs more than 200 µM; to `COc1ccc(OCC(=O)NCCNc2cccc3c2C(=O)N(C2CCC(=O)NC2=O)C3=O)cc1NC(=O)c1c(N)cccc1S(=O)(=O)c1ccc([N+](=O)[O-])cc1` (centres undefined), more than 200 µM.
The molecule `COc1ccc(OCC(=O)NCCOCCOCCNCC(=O)Nc2cccc3c2C(=O)N(C2CCC(=O)NC2=O)C3=O)cc1NC(=O)c1c(N)cccc1S(=O)(=O)c1ccc([N+](=O)[O-])cc1` (centres undefined) displayed a CC50 of more than 200 µM.
`COc1ccc(OCC(=O)NCCCCCCCCNCC(=O)Nc2cccc3c2C(=O)N(C2CCC(=O)NC2=O)C3=O)cc1NC(=O)c1c(N)cccc1S(=O)(=O)c1ccc([N+](=O)[O-])cc1` (centres undefined) showed a CC50 of more than 200 µM.
On the same count and under the same terms, to `COc1ccc(OCC(=O)NCCCCCCNCC(=O)Nc2cccc3c2C(=O)N(C2CCC(=O)NC2=O)C3=O)cc1NC(=O)c1c(N)cccc1S(=O)(=O)c1ccc([N+](=O)[O-])cc1` (centres undefined) belongs more than 200 µM; to `COc1ccc(OCC(=O)NCCCCCCNCC(=O)Nc2cccc3c2C(=O)N(C2CCC(=O)NC2=O)C3=O)cc1NC(=O)c1c(N)cccc1Sc1ccc([N+](=O)[O-])cc1` (centres undefined), more than 200 µM; to `COc1ccc(OCC(=O)NCCOCCOCCOCCNCC(=O)Nc2cccc3c2C(=O)N(C2CCC(=O)NC2=O)C3=O)cc1NC(=O)c1c(N)cccc1S(=O)(=O)c1ccc([N+](=O)[O-])cc1` (centres undefined), more than 200 µM.
For the molecule `COc1ccc(OCC(=O)NCCOCCOCCOCCNc2cccc3c2C(=O)N(C2CCC(=O)NC2=O)C3=O)cc1NC(=O)c1c(N)cccc1S(=O)(=O)c1ccc([N+](=O)[O-])cc1` (centres undefined), the CC50 is more than 200 µM.
`COc1ccc(OCC(=O)NCCCCCCCCCCNc2cccc3c2C(=O)N(C2CCC(=O)NC2=O)C3=O)cc1NC(=O)c1c(N)cccc1S(=O)(=O)c1ccc([N+](=O)[O-])cc1` (centres undefined) showed a CC50 of more than 200 µM.
Molecule `COc1ccc(OCC(=O)NCCCCCCCCNc2cccc3c2C(=O)N(C2CCC(=O)NC2=O)C3=O)cc1NC(=O)c1c(N)cccc1S(=O)(=O)c1ccc([N+](=O)[O-])cc1` (centres undefined) came in with a CC50 of more than 200 µM.
As for `COc1ccc(OCC(=O)NCCOCCOCCOCCNc2cccc3c2C(=O)N(C2CCC(=O)NC2=O)C3=O)cc1NC(=O)c1c(N)cccc1Sc1ccc([N+](=O)[O-])cc1` (centres undefined), the CC50 was more than 200 µM.
For the molecule `COc1ccc(OCC(=O)NCCOCCNc2cccc3c2C(=O)N(C2CCC(=O)NC2=O)C3=O)cc1NC(=O)c1c(N)cccc1S(=O)(=O)c1ccc([N+](=O)[O-])cc1` (centres undefined), the CC50 was more than 200 µM.
Molecule `COc1ccc(OCC(=O)NCCCCNCC(=O)Nc2cccc3c2C(=O)N(C2CCC(=O)NC2=O)C3=O)cc1NC(=O)c1c(N)cccc1Sc1ccc([N+](=O)[O-])cc1` (centres undefined) came in with a CC50 of more than 200 µM.
`COc1ccc(OCC(=O)NCCOCCNCC(=O)Nc2cccc3c2C(=O)N(C2CCC(=O)NC2=O)C3=O)cc1NC(=O)c1c(N)cccc1Sc1ccc([N+](=O)[O-])cc1` (centres undefined) yielded a CC50 of more than 200 µM.

Test system in a further data set: not listed separately
The data set is described as follows: Therapeutic index, ratio of CC50 for human TZM-bl cells to EC50 for HIV IIIB infected in TZM-bl cells. It counts as toxicity, cell-based. The note with it: read-out: Ratio CC50/EC50.
Take `COc1ccc(O)cc1NC(=O)c1c(N)cccc1S(=O)(=O)c1ccc([N+](=O)[O-])cc1`: the selectivity ratio is more than 93.5.
In the case of `COc1ccc(OCC(=O)NCCOCCOCCNCC(=O)Nc2cccc3c2C(=O)N(C2CCC(=O)NC2=O)C3=O)cc1NC(=O)c1c(N)cccc1S(=O)(=O)c1ccc([N+](=O)[O-])cc1` (centres undefined), the selectivity ratio is more than 2.99.
The same measure, in the same setting: the figure for `COc1ccc(OCC(=O)NCCOCCOCCOCCNCC(=O)Nc2cccc3c2C(=O)N(C2CCC(=O)NC2=O)C3=O)cc1NC(=O)c1c(N)cccc1S(=O)(=O)c1ccc([N+](=O)[O-])cc1` (centres undefined) is more than 9.39.

The next data set has as its target T1, Protein cereblon/Virion infectivity factor (Human immunodeficiency virus type 1 group M subtype B (isolate NY5)(HIV-1)) (UniProt Q96SW2+P12504). The data set is described as follows: PROTAC activity at CRBN (unknown origin)/Vif in HIV-1 TREX-hvif-15 cells assessed as reduction in Vif protein level at 50 uM by Western blotting analysis. The note with it: TREX-hvif-15 cell. The data set is classed as cell-based. (Immunoblotting shows a protein as a band on a membrane.)
`COc1ccc(O)cc1NC(=O)c1c(N)cccc1S(=O)(=O)c1ccc([N+](=O)[O-])cc1`: the outcome was inactive.

Another data set has as its target T1, Protein cereblon/Virion infectivity factor (Human immunodeficiency virus type 1 group M subtype B (isolate NY5)(HIV-1)). The data set is described as follows: PROTAC activity at CRBN (unknown origin)/Vif in HIV-1 TREX-hvif-15 cells assessed as reduction in Vif protein level at 50 uM pretreated with MG132 followed by compound addition and measured after 24 hrs by Western blotting analysis. It counts as cell-based. The note with it: TREX-hvif-15 cell.
`COc1ccc(OCC(=O)NCCOCCOCCNc2cccc3c2C(=O)N(C2CCC(=O)N(C)C2=O)C3=O)cc1NC(=O)c1c(N)cccc1Sc1ccc([N+](=O)[O-])cc1` (centres undefined): the result was inactive.

The next data set concerns Human immunodeficiency virus 1. The data set is described as follows: Antiviral activity against HIV-1 2802 infected in C8166 cells. It counts as functional, organism-based. The note with it: Human immunodeficiency virus 1, 2802, C8166.
The molecule `CC(C)CN(C[C@@H](O)[C@H](Cc1ccccc1)NC(=O)O[C@H]1CO[C@H]2OCC[C@H]21)S(=O)(=O)c1ccc(N)cc1` [DARUNAVIR] had a negative logarithm of the EC50 (pEC50) of more than 7.49.

The test system of the next data set is Human immunodeficiency virus 1. Put plainly: Antiviral activity against HIV-1 9498 infected in C8166 cells. The data set is classed as functional, organism-based. The note with it: Human immunodeficiency virus 1, 9498, C8166.
As to enfuvirtide, the pEC50 is less than 5.00.

By pEC50 is commonly meant −log10 of the EC50, conventionally taken in molar units. A high value points to a low EC50. The CC50 is the concentration that lowers cell viability or growth by half. A high value points to lower toxicity to the cells.

Values taken from ChEMBL document CHEMBL6127009, “Discovery of L15 as a novel Vif PROTAC degrader with antiviral activity against HIV-1” (Bioorg Med Chem Lett, 2024).
